From the supplement of paper PMC10307832

How the values were obtained:
Experiment in all cases: relative viability (nuclei count vs DMSO), 5 days (fraction); higher = more cells survive
KIN001-266 + Lapatinib = compound: CCN1CCC(CC1)N2C=C(N=N2)CNC3=CC4=C(C(=CN=C4C(=C3)Cl)C#N)NC5=CC(=C(C=C5)F)Cl [KIN001-266] + CS(=O)(=O)CCNCc1ccc(-c2ccc3ncnc(Nc4ccc(OCc5cccc(F)c5)c(Cl)c4)c3c2)o1 [Lapatinib] (partner 2 µM)
Outline: (§1)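 Lung cancer cell lines in 1536-well plates were dosed by pin tool the day after seeding, either with one drug alone or with a fixed anchor-drug dose plus five library-drug doses (not always all listed) in √10 steps. After 5 days, cells were fixed and their nuclei stained in one step (final 0.05% Triton X-100, 1% formaldehyde, 1 ug/ml Hoechst), then counted on 4× images. Relative viability is the nuclei count in treated wells divided by that in vehicle wells. Values are medians of duplicate plates.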

KIN001-266 + Crizotinib = compound: CCN1CCC(CC1)N2C=C(N=N2)CNC3=CC4=C(C(=CN=C4C(=C3)Cl)C#N)NC5=CC(=C(C=C5)F)Cl [KIN001-266] + C[C@@H](Oc1cc(-c2cnn(C3CCNCC3)c2)cnc1N)c1c(Cl)ccc(F)c1Cl [Crizotinib] (partner 1 µM)
Outline: as §1

KIN001-266 + Dasatinib = compound: CCN1CCC(CC1)N2C=C(N=N2)CNC3=CC4=C(C(=CN=C4C(=C3)Cl)C#N)NC5=CC(=C(C=C5)F)Cl [KIN001-266] + Cc1nc(Nc2ncc(C(=O)Nc3c(C)cccc3Cl)s2)cc(N2CCN(CCO)CC2)n1 [Dasatinib] (partner 0.075 µM)
Outline: as §1

KIN001-266 + Pemetrexed = compound: CCN1CCC(CC1)N2C=C(N=N2)CNC3=CC4=C(C(=CN=C4C(=C3)Cl)C#N)NC5=CC(=C(C=C5)F)Cl [KIN001-266] + Nc1nc2[nH]cc(CCc3ccc(C(=O)N[C@@H](CCC(=O)O)C(=O)O)cc3)c2c(=O)[nH]1 [Pemetrexed] (partner 0.2 µM)
Outline: as §1

Cell Line	relative viability (KIN001-266 + Lapatinib; first compound 0.08 µM)	relative viability (KIN001-266 + Lapatinib; first compound 0.253 µM)	relative viability (KIN001-266 + Lapatinib; first compound 0.8 µM)	relative viability (KIN001-266 + Lapatinib; first compound 2.53 µM)	relative viability (KIN001-266 + Lapatinib; first compound 8 µM)	relative viability (KIN001-266 + Crizotinib; first compound 0.08 µM)	relative viability (KIN001-266 + Crizotinib; first compound 0.253 µM)	relative viability (KIN001-266 + Crizotinib; first compound 0.8 µM)	relative viability (KIN001-266 + Crizotinib; first compound 2.53 µM)	relative viability (KIN001-266 + Crizotinib; first compound 8 µM)	relative viability (KIN001-266 + Dasatinib; first compound 0.08 µM)	relative viability (KIN001-266 + Dasatinib; first compound 0.253 µM)	relative viability (KIN001-266 + Dasatinib; first compound 0.8 µM)	relative viability (KIN001-266 + Dasatinib; first compound 2.53 µM)	relative viability (KIN001-266 + Dasatinib; first compound 8 µM)	relative viability (KIN001-266 + Pemetrexed; first compound 0.08 µM)	relative viability (KIN001-266 + Pemetrexed; first compound 0.253 µM)	relative viability (KIN001-266 + Pemetrexed; first compound 0.8 µM)	relative viability (KIN001-266 + Pemetrexed; first compound 2.53 µM)	relative viability (KIN001-266 + Pemetrexed; first compound 8 µM)
NCI-H596	1.09	1.07	1.17	1.06	1.01	0.989	1.21	0.895	1.08	0.925	0.607	0.586	0.539	0.583	0.63	0.451	0.481	0.498	0.403	0.477
NCI-H1563	1.05	1.1	0.968	0.922	0.835	0.877	0.799	0.95	0.852	0.879	0.468	0.524	0.447	0.458	0.553	0.885	0.714	0.865	0.793	0.914
HCC-827	0.2	0.18		0.191	0.217	0.944	0.921		0.931	0.849	0.349	0.317		0.275	0.229	0.264	0.259	0.166	0.214	0.23
NCI-H2228	1.06	1.04	0.883	0.834	0.882	0.583	0.435	0.565	0.493	0.471	0.544	0.538	0.511	0.434	0.451	0.329	0.325	0.35	0.322	0.352
NCI-H2170	0.29	0.268	0.266	0.247	0.255	1.17	1.19	1.22	1.11	1.18	0.422	0.505	0.571	0.594	0.576	0.256	0.256	0.248	0.248	0.25
EMC-BAC-2	0.906	0.907	0.879	0.917	0.942	0.826	0.797	0.758	0.751	0.794	0.352	0.392	0.319	0.373	0.331	0.505	0.504	0.449	0.462	0.529
NCI-H23	1.22	1.12	1	0.991	0.845	0.583	0.523	0.41	0.496	0.448	0.867	0.86	0.917	0.683	0.85	0.627	0.634	0.658	0.643	0.596
RERF-LC-KJ	0.871	0.828	0.817	0.857	0.781	0.722	0.899	0.803	0.777	0.813	0.951	0.922	0.757	0.725	0.417	0.475	0.507	0.475	0.499	0.467
